Assay results reported in patent publication US8952024B2, “Herbicidal pyrimidone derivatives” (E I du Pont de Nemours and Company, priority 2009, dated 2015).

Experiments:
Test in all cases: Test D pre-/postemergence plant response
Assay type in all cases: in vivo
Settings in all cases: Postemergence
[1] = system: johnsongrass (Sorghum halepense)
How it was run: (§1)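 Seeds in loam–sand blend treated preemergence, and plants at 1- to 4-leaf stage (2–18 cm) treated postemergence, with compounds in non-phytotoxic solvent with surfactant. Greenhouse for 14–21 days, then visual rating against controls, 0 (no effect) to 100 (complete control).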

[2] = system: green foxtail (Setaria viridis)
How it was run: as §1

[3] = system: nutsedge (purple nutsedge, Cyperus rotundus)
How it was run: as §1

kochia (Kochia scoparia) = system: kochia (Kochia scoparia)
How it was run: as §1

[4] = system: prickly sida (Sida spinosa)
How it was run: as §1

[5] = system: Russian thistle (Salsola kali)
How it was run: as §1

[6] = system: black mustard (Brassica nigra)
How it was run: as §1

[7] = system: sowthistle (common sowthistle, Sonchus oleraceous)
How it was run: as §1

[8] = system: purslane (common purslane, Portulaca oleracea)
How it was run: as §1

[9] = system: groundsel (common groundsel, Senecio vulgaris)
How it was run: as §1

[10] = system: bermudagrass (Cynodon dactylon)
How it was run: as §1

[11] = system: field bindweed (Convolvulus arvensis)
How it was run: as §1

[12] = system: chickweed (common chickweed, Stellaria media)
How it was run: as §1

[13] = system: goosegrass (Eleusine indica)
How it was run: as §1

[14] = system: mallow (common mallow, Malva sylvestris)
How it was run: as §1

[15] = system: morningglory (pitted morningglory, Ipomoea lacunosa)
How it was run: as §1

[16] = system: spanishneedles (Bidens bipinnata)
How it was run: as §1

[17] = 125 g ai/ha, scale 0 to 100 (0 no effect, 100 complete control)
[18] = 250 g ai/ha, scale 0 to 100 (0 no effect, 100 complete control)
[19] = 62 g ai/ha, scale 0 to 100 (0 no effect, 100 complete control)

Structure (SMILES): CCCCn1c(-c2ccccc2)ncc(C(=O)C2=C(O)C3CCC(C3)C2=O)c1=O (centres unmarked) [Compound 240]
- Plant response rating, Johnsongrass ([1]; 31 g ai/ha, scale 0 to 100): 70
- Plant response rating, Johnsongrass [1, 17]: 95
- Plant response rating, Johnsongrass [1, 18]: 95
- Plant response rating, Johnsongrass [1, 19]: 90
- Plant response rating, Foxtail, Green ([2]; 31 g ai/ha, scale 0 to 100): 95
- Plant response rating, Foxtail, Green [2, 17]: 98
- Plant response rating, Foxtail, Green [2, 18]: 98
- Plant response rating, Foxtail, Green [2, 19]: 98
- Plant response rating, Nutsedge, Purple ([3]; 31 g ai/ha, scale 0 to 100): 0
- Plant response rating, Nutsedge, Purple [3, 17]: 5
- Plant response rating, Nutsedge, Purple [3, 18]: 20
- Plant response rating, Nutsedge, Purple [3, 19]: 5
- Plant response rating, Kochia (kochia (Kochia scoparia); 31 g ai/ha, scale 0 to 100): 20
- Plant response rating, Kochia (kochia (Kochia scoparia); [17]): 65
- Plant response rating, Kochia (kochia (Kochia scoparia); [18]): 70
- Plant response rating, Kochia (kochia (Kochia scoparia); [19]): 65
- Plant response rating, Prickly Sida ([4]; 31 g ai/ha, scale 0 to 100): 35
- Plant response rating, Prickly Sida [4, 17]: 75
- Plant response rating, Prickly Sida [4, 18]: 75
- Plant response rating, Prickly Sida [4, 19]: 65
- Plant response rating, Russian Thistle ([5]; 31 g ai/ha, scale 0 to 100): 35
- Plant response rating, Russian Thistle [5, 18]: 35
- Plant response rating, Russian Thistle [5, 19]: 35
- Plant response rating, Black Mustard ([6]; 31 g ai/ha, scale 0 to 100): 70
- Plant response rating, Black Mustard [6, 17]: 98
- Plant response rating, Black Mustard [6, 18]: 98
- Plant response rating, Black Mustard [6, 19]: 80
- Plant response rating, Sowthistle ([7]; 31 g ai/ha, scale 0 to 100): 98
- Plant response rating, Sowthistle [7, 17]: 98
- Plant response rating, Sowthistle [7, 18]: 98
- Plant response rating, Sowthistle [7, 19]: 98
- Plant response rating, Purslane ([8]; 31 g ai/ha, scale 0 to 100): 0
- Plant response rating, Purslane [8, 18]: 50
- Plant response rating, Purslane [8, 19]: 35
- Plant response rating, Groundsel ([9]; 31 g ai/ha, scale 0 to 100): 100
- Plant response rating, Groundsel [9, 17]: 100
- Plant response rating, Groundsel [9, 18]: 100
- Plant response rating, Groundsel [9, 19]: 100
- Plant response rating, Bermudagrass ([10]; 31 g ai/ha, scale 0 to 100): 85
- Plant response rating, Bermudagrass [10, 17]: 95
- Plant response rating, Bermudagrass [10, 18]: 95
- Plant response rating, Bermudagrass [10, 19]: 95
- Plant response rating, Field Bindweed ([11]; 31 g ai/ha, scale 0 to 100): 60
- Plant response rating, Field Bindweed [11, 17]: 70
- Plant response rating, Field Bindweed [11, 18]: 70
- Plant response rating, Field Bindweed [11, 19]: 70
- Plant response rating, Chickweed ([12]; 31 g ai/ha, scale 0 to 100): 25
- Plant response rating, Chickweed [12, 17]: 60
- Plant response rating, Chickweed [12, 18]: 70
- Plant response rating, Chickweed [12, 19]: 50
- Plant response rating, Goosegrass ([13]; 31 g ai/ha, scale 0 to 100): 70
- Plant response rating, Goosegrass [13, 17]: 80
- Plant response rating, Goosegrass [13, 18]: 80
- Plant response rating, Goosegrass [13, 19]: 70
- Plant response rating, Mallow ([14]; 31 g ai/ha, scale 0 to 100): 10
- Plant response rating, Mallow [14, 17]: 60
- Plant response rating, Mallow [14, 18]: 60
- Plant response rating, Mallow [14, 19]: 40
- Plant response rating, Morningglory ([15]; 31 g ai/ha, scale 0 to 100): 65
- Plant response rating, Morningglory [15, 17]: 90
- Plant response rating, Morningglory [15, 18]: 95
- Plant response rating, Morningglory [15, 19]: 80
- Plant response rating, Spanishneedles ([16]; 31 g ai/ha, scale 0 to 100): 65
- Plant response rating, Spanishneedles [16, 17]: 75
- Plant response rating, Spanishneedles [16, 18]: 75
- Plant response rating, Spanishneedles [16, 19]: 65

Structure (SMILES): COCCCn1c(-c2cc(F)cc(F)c2)ncc(C(=O)C2=C(O)C3CCC(C3)C2=O)c1=O (centres unmarked) [Compound 244]
- Plant response rating, Johnsongrass ([1]; 31 g ai/ha, scale 0 to 100): 70
- Plant response rating, Johnsongrass [1, 17]: 75
- Plant response rating, Johnsongrass [1, 18]: 75
- Plant response rating, Johnsongrass [1, 19]: 70
- Plant response rating, Foxtail, Green ([2]; 31 g ai/ha, scale 0 to 100): 75
- Plant response rating, Foxtail, Green [2, 17]: 95
- Plant response rating, Foxtail, Green [2, 18]: 100
- Plant response rating, Foxtail, Green [2, 19]: 90
- Plant response rating, Nutsedge, Purple ([3]; 31 g ai/ha, scale 0 to 100): 0
- Plant response rating, Nutsedge, Purple [3, 17]: 10
- Plant response rating, Nutsedge, Purple [3, 18]: 35
- Plant response rating, Nutsedge, Purple [3, 19]: 0
- Plant response rating, Kochia (kochia (Kochia scoparia); 31 g ai/ha, scale 0 to 100): 25
- Plant response rating, Kochia (kochia (Kochia scoparia); [17]): 50
- Plant response rating, Kochia (kochia (Kochia scoparia); [18]): 65
- Plant response rating, Kochia (kochia (Kochia scoparia); [19]): 50
- Plant response rating, Prickly Sida ([4]; 31 g ai/ha, scale 0 to 100): 25
- Plant response rating, Prickly Sida [4, 17]: 40
- Plant response rating, Prickly Sida [4, 18]: 60
- Plant response rating, Prickly Sida [4, 19]: 35
- Plant response rating, Russian Thistle ([5]; 31 g ai/ha, scale 0 to 100): 20
- Plant response rating, Russian Thistle [5, 17]: 60
- Plant response rating, Russian Thistle [5, 18]: 65
- Plant response rating, Russian Thistle [5, 19]: 40
- Plant response rating, Black Mustard ([6]; 31 g ai/ha, scale 0 to 100): 50
- Plant response rating, Black Mustard [6, 17]: 95
- Plant response rating, Black Mustard [6, 18]: 98
- Plant response rating, Black Mustard [6, 19]: 75
- Plant response rating, Sowthistle ([7]; 31 g ai/ha, scale 0 to 100): 75
- Plant response rating, Sowthistle [7, 17]: 100
- Plant response rating, Sowthistle [7, 18]: 100
- Plant response rating, Sowthistle [7, 19]: 95
- Plant response rating, Purslane ([8]; 31 g ai/ha, scale 0 to 100): 25
- Plant response rating, Purslane [8, 17]: 50
- Plant response rating, Purslane [8, 18]: 50
- Plant response rating, Purslane [8, 19]: 50
- Plant response rating, Groundsel ([9]; 31 g ai/ha, scale 0 to 100): 100
- Plant response rating, Groundsel [9, 17]: 100
- Plant response rating, Groundsel [9, 18]: 100
- Plant response rating, Groundsel [9, 19]: 100
- Plant response rating, Bermudagrass ([10]; 31 g ai/ha, scale 0 to 100): 80
- Plant response rating, Bermudagrass [10, 17]: 95
- Plant response rating, Bermudagrass [10, 18]: 95
- Plant response rating, Bermudagrass [10, 19]: 80
- Plant response rating, Field Bindweed ([11]; 31 g ai/ha, scale 0 to 100): 20
- Plant response rating, Field Bindweed [11, 17]: 65
- Plant response rating, Field Bindweed [11, 18]: 70
- Plant response rating, Field Bindweed [11, 19]: 35
- Plant response rating, Chickweed ([12]; 31 g ai/ha, scale 0 to 100): 15
- Plant response rating, Chickweed [12, 17]: 40
- Plant response rating, Chickweed [12, 18]: 60
- Plant response rating, Chickweed [12, 19]: 20
- Plant response rating, Goosegrass ([13]; 31 g ai/ha, scale 0 to 100): 50
- Plant response rating, Goosegrass [13, 17]: 70
- Plant response rating, Goosegrass [13, 18]: 70
- Plant response rating, Goosegrass [13, 19]: 60
- Plant response rating, Mallow ([14]; 31 g ai/ha, scale 0 to 100): 50
- Plant response rating, Mallow [14, 17]: 60
- Plant response rating, Mallow [14, 18]: 70
- Plant response rating, Mallow [14, 19]: 50
- Plant response rating, Morningglory ([15]; 31 g ai/ha, scale 0 to 100): 65
- Plant response rating, Morningglory [15, 17]: 75
- Plant response rating, Morningglory [15, 18]: 75
- Plant response rating, Morningglory [15, 19]: 70
- Plant response rating, Spanishneedles ([16]; 31 g ai/ha, scale 0 to 100): 65
- Plant response rating, Spanishneedles [16, 17]: 75
- Plant response rating, Spanishneedles [16, 18]: 75
- Plant response rating, Spanishneedles [16, 19]: 65
